The numbers were not newly measured in patent US20110250274A1, “ESTRIOL FORMULATIONS” (priority 2008, published 2011), which cites them from elsewhere.

For series [1] the following is noted: compared with the other main human estrogens.
For series [2] the following is noted: intravaginal route, avoiding enterohepatic circulation.
The conditions of series [3]: oral administration.

Turning to `C[C@]12CC[C@@H]3c4ccc(O)cc4CC[C@H]3[C@@H]1C[C@@H](O)[C@@H]2O` [Estriol, estra-1,3,5(10)-triene-3,16a,17β-triol], the mitogenic activity result in series [1] is listed as “no mitogenic activity”. For the same compound, the “plasma levels of free estriol” value in series [2] is recorded as 20%. In series [3], the “share of the administered oral dose rapidly glucuro-conjugated by the liver” value was ~90% and the “share of the oral dose administered that reaches the systemic circulation” value is 1-2%.
